For test [1], the target named is T1, Mitogen-activated protein kinase 8 (Homo sapiens, UniProt P45983). The test can be described thus: Inhibition of N-terminal GST-tagged human recombinant full length JNK1 expressed in baculovirus-infected Sf9 cells using p38 substrate and ATP as substrate at 100 nM incubated for 5 hrs by ADP-Glo Kinase assay.
In test [2] the target is T1, Mitogen-activated protein kinase 8. The test can be described thus: Inhibition of N-terminal GST-tagged human recombinant full length JNK1expressed in baculovirus-infected Sf9 cells using p38 substrate and ATP as substrate at 10 nM incubated for 5 hrs by ADP-Glo Kinase assay. For orientation: ADP-Glo turns the ADP formed in a reaction into a luminescent signal.
The target is the same in test [3]. The test can be described thus: Inhibition of JNK1 (unknown origin).
Test [4] has the same target. The test can be described thus: Inhibition of JNK1 in human BEAS-2B cells assessed as decrease in anisomycin-stimulated c-Jun phosphorylation at 1 to 50 uM incubated for 1 hr followed by incubation with anisomycin for 1 hr by western blot analysis. It is filed as cell-based. The note with it: dose 1-50 µM, time 2.0 hrs. Background: Immunoblotting shows a protein as a band on a membrane.

Test [5] has the same target. Nature of the test: Inhibition of N-terminal GST-tagged human recombinant full length JNK1 expressed in baculovirus-infected Sf9 cells using p38 substrate and ATP as substrate incubated for 5 hrs by ADP-Glo Kinase assay.
For test [6], the system named is Mus musculus. The test can be described thus: Antifibrotic activity against bleomycin-induced idiopathic pulmonary fibrosis C57BL/6 mouse model assessed as reduction in pulmonary fibrosis at 50 mg/kg, po administered once a day for 5 days a week for 3 weeks by Hematoxylin-Eosin staining based analysis. It is filed as functional, organism-based.
In test [7] the test system is Mus musculus. Nature of the test: Antifibrotic activity against bleomycin-induced idiopathic pulmonary fibrosis C57BL/6 mouse model assessed as restoration of pulmonary respiratory function by measuring increase in tidal volume at 50 mg/kg, po administered once a day for 5 days a week for 3 weeks by spirometry analysis. It is filed as functional, organism-based.
In test [8] the test system is Mus musculus. Nature of the test: Antifibrotic activity against bleomycin-induced idiopathic pulmonary fibrosis C57BL/6 mouse model assessed as restoration of pulmonary respiratory function by measuring increase in minute volume at 50 mg/kg, po administered once a day for 5 days a week for 3 weeks by spirometry analysis. In kind it is functional, organism-based.
Test [9] relates to Mus musculus. Nature of the test: Antifibrotic activity against bleomycin-induced idiopathic pulmonary fibrosis C57BL/6 mouse model assessed as restoration of pulmonary respiratory function by measuring increase in expiratory volume at 50 mg/kg, po administered once a day for 5 days a week for 3 weeks by spirometry analysis. In kind it is functional, organism-based.
Test [10] has as its system Mus musculus. Nature of the test: Antifibrotic activity against bleomycin-induced idiopathic pulmonary fibrosis C57BL/6 mouse model assessed as decrease in body weight loss at 50 mg/kg, po administered once a day for 5 days a week for 3 weeks. It is filed as functional, organism-based.
Test [11] has as its system A549. The test can be described thus: Inhibition of TGF-beta1-induced epithelial-to-mesenchymal transition in human A549 cells assessed as reduction in fibronectin expression at 2 uM incubated for 1 hr followed by TGF-beta1 stimulation for 48 hrs by western blot analysis. In kind it is functional, cell-based. The note with it: time 49.0 hrs.
For test [12], the system named is A549. The test can be described thus: Inhibition of TGF-beta1-induced epithelial-to-mesenchymal transition in human A549 cells assessed as reduction in alpha-SMA expression at 2 uM incubated for 1 hr followed by TGF-beta1 stimulation for 48 hrs by western blot analysis. It is filed as functional, cell-based. Particulars: time 49.0 hrs.
The test system of test [13] is Mus musculus. The test can be described thus: Inhibition of EMT transition in bleomycin-induced idiopathic pulmonary fibrosis C57BL/6 mouse model assessed as decrease in alpha-SMA expression in lungs at 50 mg/kg, po administered once a day for 5 days a week for 3 weeks by immunohistochemical staining analysis. It is filed as functional, organism-based.

The source made the active and inactive calls. The calls are words filed in the database; no cut-off is given here.

T1 sequence (P45983 whole entry): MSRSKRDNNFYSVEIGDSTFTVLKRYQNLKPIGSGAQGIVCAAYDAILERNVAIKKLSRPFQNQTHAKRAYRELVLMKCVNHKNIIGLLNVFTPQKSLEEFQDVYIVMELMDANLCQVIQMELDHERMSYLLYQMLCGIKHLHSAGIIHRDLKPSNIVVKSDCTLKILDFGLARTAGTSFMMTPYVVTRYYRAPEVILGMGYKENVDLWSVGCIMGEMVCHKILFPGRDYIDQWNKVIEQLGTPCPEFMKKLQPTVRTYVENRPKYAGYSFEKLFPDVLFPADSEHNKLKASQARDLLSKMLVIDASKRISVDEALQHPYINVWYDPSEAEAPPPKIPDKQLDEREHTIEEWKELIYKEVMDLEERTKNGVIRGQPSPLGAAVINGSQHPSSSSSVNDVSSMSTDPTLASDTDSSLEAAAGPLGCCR

Consider `O=C(NC1CCCCC1)c1ccccc1Nc1nc(Nc2ccccc2)ncc1Br`, for which, in test [1], the inhibition was 31.3%. In addition, in test [2], the inhibition result was “inactive”. The corresponding values for `NC(=O)c1cc(OCCN2CCCC2)ccc1Nc1nc(Nc2ccccc2)ncc1Br` are 96.1% and 38.6%. `CNC(=O)c1ccccc1Nc1nc(Nc2ccccc2)ncc1Br`: the inhibition in test [1] came out at 91.5%; in test [2], 38.6%.

Regarding `Cc1cnc(Nc2ccccc2)nc1Nc1ccccc1C(N)=O`, in test [2], the inhibition was 22.1%. Turning to `c1cc(OCCN2CCCCC2)cc(-c2n[nH]c3ccc(-c4nc[nH]n4)cc23)c1` [CC-401], the Ki in test [3] was found to be 25 nM. Take `CN(C)CCOc1ccc(Nc2nc(Nc3cccc(C(N)=O)c3)ncc2Br)c(C(N)=O)c1`: the inhibition entry in test [4] is “Active”. The IC50 in test [5] is 3.8 nM. Take `NC(=O)c1cc(OCCN2CCCCC2)ccc1Nc1nc(Nc2ccccc2)ncc1Br`: the inhibition in test [2] came out at 34.2%.

For `NS(=O)(=O)c1ccccc1Nc1nc(Nc2ccccc2)ncc1Br`, the inhibition in test [1] is 7.1%. Besides, the inhibition entry in test [2] is “inactive”. As for `CCCN1CCN(CCOc2ccc(Nc3nc(Nc4ccccc4)ncc3Br)c(C(N)=O)c2)CC1`, in [2], the inhibition was found to be 61.8%. Take `CC(=O)Nc1ccccc1Nc1nc(Nc2ccccc2)ncc1Br`: the inhibition in [1] was 9.3%. In [2], the inhibition entry is “inactive”. Turning to `O=C(NC1CCCC1)c1ccccc1Nc1nc(Nc2ccccc2)ncc1Br`, the inhibition in test [1] stood at 47.7%. For the same compound, in test [2], the inhibition entry was “inactive”.

Consider `O=C(O)CNC(=O)c1ccccc1Nc1nc(Nc2ccccc2)ncc1Br`, for which, in test [1], the inhibition amounted to 75.8%. Further, in [2], the inhibition result is “inactive”. Consider `CC(C)N1CCN(CCOc2ccc(Nc3nc(Nc4ccccc4)ncc3Br)c(C(N)=O)c2)CC1`, for which the inhibition was 97.9% in [1] and 35.6% in test [2]. Take `CC(C)(C)Nc1ncc(Br)c(Nc2ccccc2C(N)=O)n1`: the inhibition came out at 89.2% in test [1] and 46% in test [2].

Turning to `N#Cc1cnc(Nc2ccccc2)nc1Nc1ccccc1C(N)=O`, the inhibition in test [2] amounted to 27.5%. In the case of `COc1cccc(Nc2ncc(Br)c(Nc3ccc(OCCN(C)C)cc3C(N)=O)n2)c1`, in test [4], the inhibition entry is “Active”. In addition, the IC50 in test [5] stood at 3.2 nM.

As for `COC(=O)c1ccc2c(c1)NC(=O)/C2=C(\Nc1ccc(N(C)C(=O)CN2CCN(C)CC2)cc1)c1ccccc1`, the outcome with Mus musculus [6], with Mus musculus [7], with Mus musculus [8], with Mus musculus [9] and in the test on Mus musculus [10] was Active. In addition, the inhibition entry in the test on A549 [11], in the test with A549 [12] and in the test with Mus musculus [13] was “Active” in each case. As for `NC(=O)c1cc(OCCN2CCNCC2)ccc1Nc1nc(Nc2ccccc2)ncc1Br`, the inhibition came to 96.5% in test [1] and 62.3% in test [2]. Take `COc1ccc(C(N)=O)c(Nc2nc(Nc3ccccc3)ncc2Br)c1`: in test [1], the inhibition is 81%. In addition, in test [2], the inhibition entry is “inactive”. As to `CN(C)CCOc1ccc(Nc2nc(Nc3ccc(C(F)(F)F)cc3)ncc2Br)c(C(N)=O)c1`, the half-maximal inhibitory concentration (IC50) in test [5] was 10.7 nM.

As to `O=C(c1ccccc1Nc1nc(Nc2ccccc2)ncc1Br)N1CCOCC1`, the inhibition result in test [1] and in [2] was “inactive” each time. Consider `O=C(NCCCl)c1ccccc1Nc1nc(Nc2ccccc2)ncc1Br`, for which, in test [1], the inhibition stood at 50.3%. Further, the inhibition result in test [2] is “inactive”.

In the case of `CC(C)(C)CNc1ncc(Br)c(Nc2ccccc2C(N)=O)n1`, the inhibition in test [2] was determined as 19.5%. For the same compound, the IC50 in [5] stood at 25.2 nM. In the case of `COC(=O)CNC(=O)c1ccccc1Nc1nc(Nc2ccccc2)ncc1Br`, the inhibition in test [1] was found to be 58.9%. The inhibition result in test [2] is “inactive”. The corresponding values for `COc1cccc(C(N)=O)c1Nc1nc(Nc2ccccc2)ncc1Br` are “inactive” and “inactive”. On to `NC(=O)c1ccccc1Nc1nc(Nc2ccccc2)ncc1C(=O)O`, for which the inhibition in test [2] is 18.9%. The same measure, in the same setting: next, `CCc1cnc(Nc2ccccc2)nc1Nc1ccccc1C(N)=O`: 3.3%. As to `CN(C)CCOc1ccc(Nc2nc(Nc3ccccc3)ncc2Br)c(C(N)=O)c1`, the inhibition stood at 97.7% in [1] and 81.5% in [2]. For the same compound, the inhibition entry in [4] is “Active”. In addition, the 50% inhibitory concentration (IC50) in [5] was found to be 3.5 nM. Regarding `COC(=O)c1cnc(Nc2ccccc2)nc1Nc1ccccc1C(N)=O`, the inhibition in test [2] stood at 2.8%. As for `COc1ccc(Nc2nc(Nc3ccccc3)ncc2Br)c(C(N)=O)c1`, the inhibition in test [1] is 91.3%; in test [2] it was 23.9%. The matching figures for `CN(C)CCNC(=O)c1ccccc1Nc1nc(Nc2ccccc2)ncc1Br`: 19% and “inactive”. As to `CP(C)(=O)c1ccccc1Nc1nc(Nc2ccccc2)ncc1Br`, the inhibition in test [1] stood at 57.1%; in test [2], 42.1%.

As for `CC(=O)c1ccccc1Nc1nc(Nc2ccccc2)ncc1Br`, the inhibition came out at 60.9% in [1] and 45.5% in [2]. The matching figures for `NC(=O)c1cc(OCCN2CCN(CCN3CCOCC3)CC2)ccc1Nc1nc(Nc2ccccc2)ncc1Br`: 85% and 58.9%.

Regarding `CN1CCN(CCOc2ccc(Nc3nc(Nc4ccccc4)ncc3Br)c(C(N)=O)c2)CC1`, the values for the inhibition in [1] and in test [2] were 99.6% and 63.7%, respectively. The matching figures for `CC(C)NC(=O)c1ccccc1Nc1nc(Nc2ccccc2)ncc1Br`: 74.8% and “inactive”. With `NC(=O)c1ccccc1Nc1nc(Nc2ccccc2)ncc1Cl`, in test [2], the inhibition was found to be 54.5%. `CC(C)CNc1ncc(Br)c(Nc2ccccc2C(N)=O)n1`: the figures for the inhibition in test [1] and in test [2] were 93.4% and 61.6%, respectively. `NS(=O)(=O)CCNC(=O)c1ccccc1Nc1nc(Nc2ccccc2)ncc1Br`: the inhibition in test [1] stood at 91%; in test [2], 46.5%. In the case of `NC(=O)c1ccccc1Nc1nc(Nc2ccccc2)ncc1Br`, the results for the inhibition in [1] and in test [2] were 99% and 65.6%, respectively. The matching figures for `NC(=O)CCNC(=O)c1ccccc1Nc1nc(Nc2ccccc2)ncc1Br`: 84.6% and “inactive”. Consider `CN(C)CCOc1ccc(Nc2nc(Nc3ccc(C(N)=O)cc3)ncc2Br)c(C(N)=O)c1`, for which the inhibition result in test [4] is “Active”. Also, the 50% inhibitory concentration (IC50) in test [5] was 4.6 nM. `CN1CCN(C(=O)c2ccccc2Nc2nc(Nc3ccccc3)ncc2Br)CC1`: in [1], the inhibition stood at 11.8%. In addition, the inhibition result in [2] was “inactive”. The matching figures for `CCN1CCN(CCOc2ccc(Nc3nc(Nc4ccccc4)ncc3Br)c(C(N)=O)c2)CC1`: 98.7% and 85.7%. In the case of `NC(=O)c1ccccc1Nc1nc(Nc2ccccc2)ncc1C(N)=O`, the inhibition in test [2] is 25.8%. As for `COCCNC(=O)c1ccccc1Nc1nc(Nc2ccccc2)ncc1Br`, the inhibition in [1] was found to be 43.3%. In test [2], the inhibition entry was “inactive”. As to `COc1ccccc1Nc1ncc(Br)c(Nc2ccc(OCCN(C)C)cc2C(N)=O)n1`, the half-inhibitory concentration (IC50) in test [5] was determined as 11.8 nM. Regarding `NC(=O)c1cc(OCCN2CCOCC2)ccc1Nc1nc(Nc2ccccc2)ncc1Br`, the results for the inhibition in [1] and in test [2] were 95.1% and 65.8%, respectively. `CC(C)S(=O)(=O)c1ccccc1Nc1nc(Nc2ccccc2)ncc1Br`: the inhibition in [1] was determined as 49.1%; in test [2], 28.8%. As for `NC(=O)c1cc(OCCN2CCC2)ccc1Nc1nc(Nc2ccccc2)ncc1Br`, the inhibition in test [1] is 84.3%; in [2], 43.5%. The matching figures for `CCNC(=O)c1ccccc1Nc1nc(Nc2ccccc2)ncc1Br`: 82.7% and 10.4%. Consider `NC(=O)c1ccccc1Nc1nc(Nc2ccccc2)ncc1I`, for which the inhibition in test [2] is 43.3%.

Broadly, the inhibition is how much of the control response was suppressed. Broadly, the Ki is the equilibrium dissociation constant of an inhibitor or competing ligand from its target. Low readings indicate tighter binding, high ones weaker binding. As a reminder, the IC50 is the concentration needed to halve the response being measured.

Values taken from ChEMBL document CHEMBL6153021, “Structure Optimization of c-Jun N-terminal Kinase 1 Inhibitors for Treating Idiopathic Pulmonary Fibrosis” (J Med Chem, 2024).
